Converted amounts (≈) assume the structure as drawn.
Columns and labels:
S. marcescens ATCC 13880 = assay: Antibacterial activity: MIC/MBC, MIC with PAβN, disc-diffusion; type: cell-based, Serratia marcescens; details: S. marcescens ATCC 13880; for MIC: Serratia marcescens, ATCC13880, read-out: MIC
Method: Direct antimicrobial activity was determined against the following standard strains: (1) Gram-positive cocci: methicillin-sensitive Staphylococcus aureus ATCC 6538P (MSSA), methicillin-resistant S. aureus subsp. aureus ATCC 43300 (MRSA), S. epidermidis ATCC 12228, Enterococcus faecium ATCC 6057, E. faecalis ATCC 29212, Bacillus subtilis ATCC 6633; (2) Gram-negative bacteria from Enterobacteriales order: Klebsiella pneumoniae ATCC 13883, Escherichia coli ATCC 25922, Enterobacter cloacae DSM 6234, Proteus mirabilis ATCC 12453, Serratia marcescens ATCC 13880; (3) Gram-negative non-fermentative rods: Acinetobacter baumannii ATCC 19606, Pseudomonas aeruginosa ATCC 27853, Stenotrophomonas maltophilia ATCC 12714, S. maltophilia ATCC 13637, Burkholderia cepacia ATCC 25416, Bordetella bronchiseptica ATCC 4617; (4) yeasts: Candida albicans ATCC 90028, C. krusei ATCC 6258, C. parapsilosis ATCC 22019, C. tropicalis (Castellani) Berkhout ATCC 750, C. tropicalis IBA 171, C. guilliermondii IBA 155, and Saccharomyces cerevisiae ATCC 9763. Moreover, 5 clinical strains of methicillin-resistant S. aureus were also included: NMI 664 K, NMI 1576 K, NMI 1712 K, NMI 1991 K, and NMI 2541 K. All strains were stored at −80 °C. Prior to testing, each bacterial strain was subcultured twice on tryptic soy agar TSA (bioMerieux) medium and yeast strains on Sabouraud dextrose agar (bioMerieux) for 24–48 h at 30 °C to ensure viability. The antimicrobial activity was evaluated as previously described[26] by the disc-diffusion method and the MIC determination assays according to the EUCAST (ref. [71] and [72]) and CLSI (ref. [53] and [73]) recommendations. Assessment of bactericidal (MBC) and fungicidal (MFC) activities was performed according to the CLSI recommendations.[54,74] […] The new benzosiloxaboroles were dissolved in DMSO (Sigma).
Considering that the MDR efflux pumps often contribute to Gram-negative rod resistance, the MIC values of studied agents, with or without the pump inhibitor, PAβN (20 μg mL^−1) (Sigma), were determined.[75] The MIC was determined using Mueller–Hinton II broth medium (MHB) (Becton Dickinson) by the broth microdilution method, according to the CLSI guideliness.[53] To minimize the influence of PAβN on the destabilization of bacterial cell covers, the tests were conducted in the presence of 1 mM MgSO4 (Sigma).[76] At least a 4-fold reduction in the MIC value after the addition of PAβN was considered significant.[56,77]

[1] = tested on: S. maltophilia ATCC 12714; assay: as above; type: cell-based, Stenotrophomonas maltophilia; details: S. maltophilia ATCC 12714; for MIC: read-out: MIC
Procedure, shortened: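 Strains were subcultured twice on TSA at 30 °C. They were then tested by disc diffusion (EUCAST/CLSI), by CLSI broth-microdilution MIC in Mueller–Hinton II broth and by CLSI MBC, with compounds in DMSO.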

[2] = tested on: Human normal lung fibroblasts MRC-5; assay: MTT-based viability (cytotoxicity) assay; details: for IC50: Homo sapiens, MRC5, 48 h
Method: To evaluate the cytotoxic effect of the tested compounds, an MTT-based assay was performed. […] Moreover, based on available IC50 and MIC (for standard and clinical S. aureus MRSA strains) values, the selectivity index (SI) was calculated for several compounds as the IC50/MIC ratio (Table 5).[60]
MRC-5 pd30 human fibroblasts (ECACC) were cultured in MEME, Minimum Essential Medium Eagle (Merck), supplemented with 10% fetal bovine serum (Merck), 2 mM L-glutamine, antibiotics (100 U mL^−1 penicillin, 100 μg mL^−1 streptomycin, Merck) and 1% non-essential amino acids (Merck). Cells were grown in 75 cm^2 cell culture flasks (Sarstedt), in a humidified atmosphere of CO2/air (5/95%) at 37 °C. MTT-based viability assay was conducted as described previously.[26] Optical densities were measured at 570 nm using a BioTek microplate reader. All measurements were carried out in three replicates and the results expressed as a percent of viable cells versus control cells. […] The selectivity index (SI) was calculated as [drawing 30] , in accordance with previously described protocols.[60]

[3] = Stenotrophomonas maltophilia, ATCC12714
[4] = (-) = zone not observed, paper discs 9 mm

Row | Structure (SMILES) | MIC (S. marcescens ATCC 13880) [µg/mL] | MIC [1, 3] [µg/mL] | also measured
1 | CC(=O)CCSc1c(F)cc2c(c1F)[Si](C)(C)OB2O [Compound 3, 4-((5,7-Difluoro-3-hydroxy-1,1-dimethyl-1,3-dihydrobenzo[c][1,2,5]oxasilaborol-6-yl)thio)butan-2-one] | > 400 | 200 (≈ 632 µM) | –
2 | C[Si]1(C)OB(O)c2cc(F)c(SCCC(=O)ON3C(=O)CCC3=O)c(F)c21 [Compound 5, 2,5-Dioxopyrrolidin-1-yl 3-((5,7-difluoro-3-hydroxy-1,1-dimethyl-1,3-dihydrobenzo-[c][1,2,5]oxasilaborol-6-yl)thio)propanoate] | > 400 | > 400 | –
3 | C[Si]1(C)OB(O)c2cc(F)c(SCCC(N)=O)c(F)c21 [Compound 7, 3-((5,7-Difluoro-3-hydroxy-1,1-dimethyl-1,3-dihydrobenzo[c][1,2,5]oxasilaborol-6-yl)thio)propanamide] | > 400 | > 400 | –
4 | C[Si]1(C)OB(O)c2cc(F)c(SCCC(=O)N3CCOCC3)c(F)c21 [Compound 8, 3-((5,7-Difluoro-3-hydroxy-1,1-dimethyl-1,3-dihydrobenzo[c][1,2,5]oxasilaborol-6-yl)thio)-1-morpholinopropan-1-one] | > 400 | > 400 | –
5 | C[Si]1(C)OB(O)c2cc(F)c(SCCC(=O)Nc3ncccn3)c(F)c21 [Compound 9, 3-((5,7-Difluoro-3-hydroxy-1,1-dimethyl-1,3-dihydrobenzo[c][1,2,5]oxasilaborol-6-yl)thio)-N-(pyrimidin-2-yl)propanamide] | > 400 | > 400 | –
6 | C[Si]1(C)OB(O)c2cc(F)c(SCCC(=O)Nc3cnccn3)c(F)c21 [Compound 10, 3-((5,7-Difluoro-3-hydroxy-1,1-dimethyl-1,3-dihydrobenzo[c][1,2,5]oxasilaborol-6-yl)thio)-N-(pyrazin-2-yl)propanamide] | > 400 | > 400 | –
7 | Cc1cc(NC(=O)CCSc2c(F)cc3c(c2F)[Si](C)(C)OB3O)no1 [Compound 11, 3-((5,7-Difluoro-3-hydroxy-1,1-dimethyl-1,3-dihydrobenzo[c][1,2,5]oxasilaborol-6-yl)thio)-N-(5-methylisoxazol-3-yl)propanamide] | > 400 | > 400 | –
8 | C[Si]1(C)OB(O)c2ccc(SC3CC(=O)NC3=O)c(F)c21 (stereo not shown) [Compound 13, 3-((7-Fluoro-3-hydroxy-1,1-dimethyl-1,3-dihydrobenzo[c][1,2,5]oxasilaborol-6-yl)thio)pyrrolidine-2,5-dione] | 100 (≈ 308 µM) | 50 (≈ 154 µM) | diameter of inhibition zone (S. marcescens ATCC 13880; [4]): 29 mm; -fold reduction of MIC in the presence of PAβN (S. marcescens ATCC 13880; PAβN 20 μg mL^−1, MHB + 1 mM MgSO4): 2 -fold; diameter of inhibition zone [1, 4]: 17 mm; MBC [1, 3]: 200 µg/mL (≈ 615 µM)
9 | C[Si]1(C)OB(O)c2cc(F)c(SC3CC(=O)N(c4ccc(F)cc4)C3=O)c(F)c21 (stereo not shown) [Compound 14, 3-((5,7-Difluoro-3-hydroxy-1,1-dimethyl-1,3-dihydrobenzo[c][1,2,5]oxasilaborol-6-yl)thio)-1-(4-fluorophenyl)pyrrolidine-2,5-dione] | > 200 | 100 (≈ 229 µM) | viability of MRC-5 ([2]; 6.25 µg·mL−1, 48 h): 90.4±7.6 % of control ± SD; viability of MRC-5 ([2]; 12.5 µg·mL−1, 48 h): 88.8±5.4 % of control ± SD; viability of MRC-5 ([2]; 25 µg·mL−1, 48 h): 87.5±3.5 % of control ± SD; viability of MRC-5 ([2]; 50 µg·mL−1, 48 h): 80.3±7.5 % of control ± SD; viability of MRC-5 ([2]; 100 µg·mL−1, 48 h): 52.0±2.8 % of control ± SD; viability of MRC-5 ([2]; 200 µg·mL−1, 48 h): 27.3±3.2 % of control ± SD; viability of MRC-5 ([2]; 400 µg·mL−1, 48 h): 0.1±0.1 % of control ± SD; IC50 [2]: 133 µg/mL (≈ 305 µM)
10 | C[Si]1(C)OB(O)c2ccc(SC3CC(=O)N(c4ccc(F)cc4)C3=O)c(F)c21 (stereo not shown) [Compound 15, 3-((7-Fluoro-3-hydroxy-1,1-dimethyl-1,3-dihydrobenzo[c][1,2,5]oxasilaborol-6-yl)thio)-1-(4-fluorophenyl)pyrrolidine-2,5-dione] | > 200 | > 200 | viability of MRC-5 ([2]; 6.25 µg·mL−1, 48 h): 89.2±0.3 % of control ± SD; viability of MRC-5 ([2]; 12.5 µg·mL−1, 48 h): 77.9±4.3 % of control ± SD; viability of MRC-5 ([2]; 25 µg·mL−1, 48 h): 73.7±0.8 % of control ± SD; viability of MRC-5 ([2]; 50 µg·mL−1, 48 h): 69.9±1.8 % of control ± SD; viability of MRC-5 ([2]; 100 µg·mL−1, 48 h): 65.0±0.1 % of control ± SD; viability of MRC-5 ([2]; 200 µg·mL−1, 48 h): 41.5±0.7 % of control ± SD; viability of MRC-5 ([2]; 400 µg·mL−1, 48 h): 6.7±0.1 % of control ± SD; IC50 [2]: 145 µg/mL (≈ 346 µM)
11 | C[Si]1(C)OB(O)c2cc(F)c(SC3CC(=O)N(c4ccc(Br)c(C(F)(F)F)c4)C3=O)c(F)c21 (stereo not shown) [Compound 16, 1-(4-Bromo-3-(trifluoromethyl)phenyl)-3-((5,7-difluoro-3-hydroxy-1,1-dimethyl-1,3-dihydrobenzo[c][1,2,5]oxasilaborol-6-yl)thio)pyrrolidine-2,5-dione] | > 200 | > 200 | viability of MRC-5 ([2]; 6.25 µg·mL−1, 48 h): 97.0±0.2 % of control ± SD; viability of MRC-5 ([2]; 12.5 µg·mL−1, 48 h): 84.8±2.7 % of control ± SD; viability of MRC-5 ([2]; 25 µg·mL−1, 48 h): 78.5±1.6 % of control ± SD; viability of MRC-5 ([2]; 50 µg·mL−1, 48 h): 62.7±2.5 % of control ± SD; viability of MRC-5 ([2]; 100 µg·mL−1, 48 h): 46.0±1.4 % of control ± SD; viability of MRC-5 ([2]; 200 µg·mL−1, 48 h): 0.4±0.2 % of control ± SD; viability of MRC-5 ([2]; 400 µg·mL−1, 48 h): 0.1±0.0 % of control ± SD; IC50 [2]: 76.2 µg/mL (≈ 135 µM)
12 | C[Si]1(C)OB(O)c2cc(F)c(SCCC(=O)OCCCCCC[n+]3ccccc3)c(F)c21 [Compound 18, 1-(6-((3-((5,7-difluoro-3-hydroxy-1,1-dimethyl-1,3-dihydrobenzo[c][1,2,5]oxasilaborol-6-yl)thio)propanoyl)oxy)hexyl)pyridin-1-ium trifluoromethanesulfonate] | > 400 | > 400 | –
13 | C[Si]1(C)OB(O)c2ccc(SCCC(=O)OCCCCCC[n+]3ccccc3)c(F)c21 [Compound 19, 1-(6-((3-((7-Fluoro-3-hydroxy-1,1-dimethyl-1,3-dihydrobenzo[c][1,2,5]oxasilaborol-6-yl)thio)propanoyl)oxy)hexyl)pyridin-1-ium trifluoromethanesulfonate] | > 400 | > 400 | –
14 | C[Si]1(C)OB(O)c2ccc(SCCS(=O)(=O)c3ccccc3)c(F)c21 [Compound 21, 7-Fluoro-1,1-dimethyl-6-((2-(phenylsulfonyl)ethyl)thio)benzo[c][1,2,5]oxasilaborol-3(1H)-ol] | > 400 | > 400 | –
15 | C[Si]1(C)OB(O)c2cc(F)c(S(=O)(=O)Cl)c(F)c21 [Compound 26, 5,7-Difluoro-3-hydroxy-1,1-dimethyl-1,3-dihydrobenzo[c][1,2,5]oxasilaborole-6-sulfonyl chloride] | > 400 | > 400 | –
